Experimental data taken from paper PMC3187749, “Discovery of Diverse Small Molecule Chemotypes with Cell-Based PKD1 Inhibitory Activity” (PLoS ONE, 2011).

Key:
AKT = assay: IMAP-based AKT counter screen; type: biochemical; settings: concentrations up to 50 µM
Source text: (§1) It was also gratifying that, in general, our novel cell active PKD1 inhibitors appeared to be less promiscuous than PKD1 inhibitors having minimal to no cellular PKD1 inhibitory activity (Table 1). For example, CIDs 755673 and 1893668 display additional confirmed activity in six and seven, respectively, PubChem bioassays while CID 2011756 has confirmed activity in only one additional PubChem bioassay. […] In contrast, the remaining chemotypes registered as confirmed actives in 2–43 additional bioassays (Table 1). Additional chemical similarity searching, focusing on our four novel cell-active PKD1 inhibitory chemotypes, using MetaDrug also supports a comparative lack of promiscuity of these compounds.

recombinant human PKD1 [1] = target: T1, recombinant human PKD1 (Homo sapiens, UniProt Q15139); assay: ATP competition studies (radiometric PKD1 assay, Michaelis-Menten/Lineweaver-Burk); type: biochemical; settings: PKD1, ATP 12.5–1000 µM
T1 construct: His; purchased Millipore (Billerica, MA)
T1 sequence (Q15139 1-912): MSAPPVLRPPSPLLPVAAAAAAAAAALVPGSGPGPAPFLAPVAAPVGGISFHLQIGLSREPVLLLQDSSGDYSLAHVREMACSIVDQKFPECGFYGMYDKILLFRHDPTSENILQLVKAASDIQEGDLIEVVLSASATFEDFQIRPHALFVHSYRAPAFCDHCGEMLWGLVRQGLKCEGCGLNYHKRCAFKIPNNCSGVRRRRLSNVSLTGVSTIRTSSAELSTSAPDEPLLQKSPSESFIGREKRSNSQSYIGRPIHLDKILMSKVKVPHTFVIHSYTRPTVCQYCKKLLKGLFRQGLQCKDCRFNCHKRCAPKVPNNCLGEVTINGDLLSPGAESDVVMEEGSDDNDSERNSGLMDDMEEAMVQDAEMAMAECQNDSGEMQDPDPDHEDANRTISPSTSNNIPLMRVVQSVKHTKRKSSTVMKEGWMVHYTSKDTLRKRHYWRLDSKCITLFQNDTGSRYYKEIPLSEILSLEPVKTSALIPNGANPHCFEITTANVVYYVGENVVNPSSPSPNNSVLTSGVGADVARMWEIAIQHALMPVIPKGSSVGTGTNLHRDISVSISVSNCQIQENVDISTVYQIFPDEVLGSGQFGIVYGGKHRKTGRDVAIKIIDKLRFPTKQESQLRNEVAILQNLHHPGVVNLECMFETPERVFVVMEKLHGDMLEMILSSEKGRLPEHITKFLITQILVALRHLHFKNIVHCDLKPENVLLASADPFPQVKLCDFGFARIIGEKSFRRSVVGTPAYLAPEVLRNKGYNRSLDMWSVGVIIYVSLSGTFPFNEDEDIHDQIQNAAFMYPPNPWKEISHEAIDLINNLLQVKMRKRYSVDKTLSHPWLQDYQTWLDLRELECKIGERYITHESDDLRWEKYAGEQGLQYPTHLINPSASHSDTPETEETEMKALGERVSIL
Method: For ATP competition studies, recombinant human PKD1 (1 ng/µL) and Syntide-2 substrate peptide (200 ng/µl) in kinase buffer were incubated with a concentration range of test compound. Kinase reactions were initiated with a concentration range of cold ATP (12.5–1000 µM) supplemented with 1.0 µCi γ-^33P-ATP (Perkin Elmer) and processed as described above. Enzyme inhibition was analyzed and visualized using the Michaelis-Menten and Lineweaver-Burk functions of GraphPad Prism 5.0.

PLK1 = assay: IMAP-based PLK1 counter screen; type: biochemical; settings: concentrations up to 50 µM
Source text: as §1

CDK7 = assay: IMAP-based CDK7 counter screen; type: biochemical; settings: concentrations up to 50 µM
Source text: as §1

recombinant human PKD1 [2] = target: T1, recombinant human PKD1; assay: In vitro radiometric PKD1 kinase assay; type: biochemical; settings: radiometric PKD1 kinase assay; mean ± range or SD of 2–4 independent experiments; read-out: In vitro PKD1 IC50
Method: Kinase reactions were initiated with the addition of ATP (50 µM ATP, 1.0 µCi γ-^33P-ATP; Perkin Elmer, Boston, MA) and incubated for 20 min at 30°C. Twenty-five µL of the reaction was spotted onto Whatman P81 filter paper (Whatman Inc., Clifton, NJ). Filter papers were then washed three times in 0.5% phosphoric acid, air-dried, and counted using an LS6500 multi-purpose scintillation counter (Beckman Coulter, Fullerton, CA). IC50 determinations were performed using GraphPad Prism software 5.0. Radiometric PKD2 and PKD3 in vitro kinase assays were performed as previously described.

[3] = target: T2, endogenous PKD1 (Ser916 phosphorylation) in LNCaP prostate cancer cells (Homo sapiens, UniProt Q15139); assay: Western blot of PMA-induced phospho-Ser916-PKD1 in LNCaP cells; type: cell-based
T2 construct: phosphorylation of endogenously expressed PKD1 Ser^916; endogenous in cells; host or cells: LNCaP prostate cancer cells
T2 sequence (Q15139 1-912): T1 sequence (Q15139 1-912)
Method: Briefly, prostate cancer cells (LNCaP) were exposed to test compounds. Cells were lysed in buffer (200 mM Tris-HCl, pH 7.4, 100 µM 4-(2-aminoethyl) benzenesulfonyl fluoride, 1 mM EGTA, and 1% Triton X-100) and cell lysates were subjected to SDS-PAGE then electrotransferred to nitrocellulose membranes. Membranes were blocked with 5% nonfat milk in Tris-buffered saline. Membranes were probed with a primary antibody then followed by a secondary anti-mouse or anti-rabbit secondary antibody conjugated to horseradish peroxidase (1∶1000, Bio-Rad). Bands were visualized by the enhanced chemiluminescence Western blotting detection system (Amersham Biosciences). The primary antibodies included p-S916-PKD1 antibody (Millipore) and GAPDH (Enzo Life Sciences, Plymouth Meeting, PA).
[…] Whole cell lysates were immunoblotted for phosphorylated Ser^916-PKD1 with GAPDH serving as a loading control.

O=C(Nc1ccc(CN2CCOCC2)cc1)c1ccc(-c2cccc(Cl)c2)o1 [CID 2011756, 5-(3-chlorophenyl)-N-[4-(morpholin-4-ylmethyl)phenyl]furan-2-carboxamide]
AKT kinase inhibition (AKT): no kinase inhibition
Mechanism of Action (with respect to ATP) (recombinant human PKD1 [1]): ATP competitive
PLK1 kinase inhibition (PLK1): no kinase inhibition
CDK7 kinase inhibition (CDK7): no kinase inhibition
IC50 (recombinant human PKD1 [2]): 3.2 ± 0.1 µM
EC50 ([3]; LNCaP cells, PMA stimulation, n = 3, read-out: Cellular EC50 (phospho-Ser916-PKD1)): 10 ± 0.7 µM
Concentration dependence of inhibition of PMA-induced endogenous PKD1 activity ([3]; LNCaP cells, Western blot): concentration-dependent inhibition
inhibition at 50 µM ([3]; LNCaP, read-out: Inhibition of phosphorylation of Ser916-PKD1): > 50%
